According to patent US20130191934A1, “TREATMENT OF SYMPTOMS ASSOCIATED WITH MENOPAUSE” (INDIANA UNIVERSITY RESEARCH AND TECHNOLOGY CORPORA, priority 2010, published 2013):
“Also recorded” adds a separate entry of the source.

Legend:
[1] = system: menopausal women; settings: cited from earlier work
[2] = system: ORX1 and ORX2 receptors; settings: cited from earlier work
[3] = under investigation for insomnia; cited from earlier work
[4] = system: panic-prone rats; assay: Sodium lactate challenge in panic-prone (l-allylglycine) rats; format: in vivo, rat; settings: for anxiety-like responses (social interaction duration) after sodium lactate: 30 mg/kg i.p. before 15 min i.v. 0.5M sodium lactate, FIG. 1b; for lactate induced increases in core body temperature / lactate induced increases in heart rate: 30 mg/kg i.p.; for lactate induced increases in core body temperature: FIG. 1c; for lactate induced increases in heart rate: FIG. 1d
Excerpt: Panic disorder is associated with disruption of central inhibitory gamma-aminobutyric acid (GABAergic) tone, and may contribute to panic attacks which are consistently provoked by ordinarily mild physical stressors such as mild osmotic disturbances (e.g., intravenous sodium lactate challenges).
Orexin/hypocretin producing neurons are almost exclusive to dorsomedial hypothalamus and adjacent lateral hypothalamus, and play a critical role in maintaining wakefulness, vigilance and central sympathetic mobilization, which are key components of panic and anxiety. Experiments were conducted to investigate whether the administration of either a systemic orexin 1 antagonist or silencing the hypothalamic orexin gene product with RNA interference could block lactate-induced panic responses.

[5] = system: dorsomedial hypothalamus (DMH) of anesthetized rat; assay: BMI microinjection into the DMH of anesthetized rats; format: in vivo; settings: 30 mg/kg i.p.; BMI 20 pmol/50 nL into DMH; FIG. 2; listed as SB334861
Experimental: FIG. 2 Continuous and simultaneous measurement of blood pressure (top panel), heart rate (middle panel), and core body temperature (bottom panel) in an isoflurane anesthetized rat after identical microinjections of BMI (20 pmol/50 nL) into the DMH (time marks 1 and 3) before and after systemic administration of the orexin-1 receptor antagonist SB334861 (30 mg/kg i.p.; time mark 2).
As disclosed herein, experiments were conducted to determine whether an orexin-1 receptor antagonist (SB334861) or an orexin-2 receptor antagonist (TCSOX229) could attenuate the physiologic responses to chemical stimulation of the DMH. Chemical stimulation or disinhibition of neurons in the region of the dorsomedial hypothalamus (DMH) was conducted using the GABAA receptor antagonist bicuculline methiodide (BMI). To test orexin inhibitors ability to attenuate the BMI stimulated response, BMI was microinjected (20 pmol/50 nL) into the DMH of urethane-anesthetized rats both before and after systemic administration of the orexin inhibitor, and the responses were monitored.

[6] = system: adult female rats (OVEX or tamoxifen); assay: Open field anxiety test in tamoxifen-treated or ovariectomized female rats; format: in vivo, rat; settings: for anxiety-like behavior (time spent in center of open field) in OVEX rats: 30 mg/kg i.p. 30 min prior to testing, OVEX female rats, FIG. 3B
Experimental: FIG. 3A & 3B are bar graphs showing the effects of subcutaneously injecting adult female rats with 3 days of vehicles (10% DMSO, 90% sesame oil) or 10 mg/kg tamaoxifen (a nonselective estrogen receptor antagonist) on time spent in the center of an open field. * represents p,0.05 with unpaired t-test. n=6/group. […] Bars represent mean and error bars represent SEM. * represents p,0.05 Mann Whitney U test following an ANOVA f(3,35)=2.9, p=0.048.
Furthermore, experiments were conducted to investigate the impact of lowering estrogen activity by either administering tamoxifen or ovariectomizing rats.

[7] = system: female ovariectomized, or sham-OVEX control, rats; assay: Hypercapnia (20% CO2) challenge, tail skin temperature in OVEX rats; format: in vivo, rat; settings: 30 mg/kg pretreatment
Excerpt: Hypercapnia model: There is also evidence that altered respiration patterns may trigger hot flashes whereas paced respiration may alleviate hot flash incidence and intensity. Increased or decreased respiration activity alters blood CO2/pH levels, and a hypersensitivity to CO2/pH may be present in conditions where estrogen activity is very low.

[8] = 30 mg/kg intraperitoneal; cited from earlier work
[9] = system: OVEX'ed rats; settings: cited from earlier work; for anxiety behaviors in the elevated plus maze (EPM) and open field tests (OFT): OVEX'ed rats; for block of the anxiety induced by OVEXing a female rat: daily s.c.: E2 0.25 mg/kg, DPN 1.0 mg/kg, PPT 1.0 mg/kg, Walf et al., 2010
[10] = system: ORX-ir neurons; assay: c-Fos induction in ORX-ir neurons after yohimbine; format: in vivo, rat; settings: 5 mg/kg i.p.; male rats; FIG. 5A
Excerpt: (§1) FIG. 5A & 5B are graphs showing the effects of yohimbine on cellular responses. […] Black and gray outlined bars respectively represent c-FOS/ORX double and total ORX-ir labeled neurons in the hypothalamus. *Mann-whiney U=1.5, p=0.001. […] Treatment by time effect F(89,267)=2.7, p<0.001.
(§2) Conversely, administering intravenous infusions of yohimbine (alpha2-adrenergic autoreceptor antagonist) to symptomatic, but not asymptomatic, menopausal women provokes “hot flashes” (Freedman et al, Obstet Gynecol, 1990. 76(4): p. 573-8). […] A dramatic drop in core body temp also immediately follows this, which also occurs in women following the onset of a hot flash.

[11] = system: female ovariectomized rats; assay: Yohimbine challenge, tail skin and core body temperature in OVEX rats; format: in vivo, rat; settings: 5 mg/kg i.p.
Experimental: as §1
To objectively measure “hot flash” (assessed by tail temp) related activity in female OVEX rats, magnetically activated radiotelemetry probes (dimensions: 3.5 cc volume with 0.05° C. resolution) were implanted subcutaneously under the skin on the back of rat. The probe has 2 leads, each with an ˜1 cm long temp sensor that can be implanted in the tail and into the abdominal cavity to respectively measure skin and core body temp (as well as general ambulatory activity) in freely moving rats for extended periods. Recently we used the dual thermistor probes and were able to replicate previous findings that tail temp decreases during active phase in sham-OVEX rats, but this decrease is blunted in OVEX rats (FIG. 4B).
as §2

[12] = listed as orexin 1 receptor antagonist
[13] = OVEX rats, 5 min 20% CO2, FIG. 6B

## Clc1cccc(Cl)c1N=C1NCCN1 [clonidine]
[1]; Freedman et al, 1990
  incidence of hot flashes in menopausal women: reduce the incidence

## CNC(=O)[C@@H](c1ccccc1)N1CCc2cc(OC)c(OC)cc2[C@@H]1CCc1ccc(C(F)(F)F)cc1 [Almorexant]
[2]
  mode of orexin receptor antagonism: competitive, dual ORX1 and ORX2 receptor antagonists
[3]
  safety and side effects in phase III trials: safe, have few side effects

## Cc1nc2ccc(NC(=O)Nc3ccnc4cccnc34)cc2o1 [SB334867, 1-(2-methylbenzoxazol-6-yl)-3-[1,5]naphthyridin-4-yl urea]
[4]
  anxiety-like responses (social interaction duration) after sodium lactate: Blocks; also recorded: attenuated
  lactate induced increases in core body temperature: block; also recorded: attenuated
  lactate induced increases in heart rate: attenuated
[4]; [12]
  anxiety-like responses (social interaction duration) after sodium lactate: blocks
  lactate induced increases in core body temperature: blocks
  lactate induced increases in heart rate: blocks
[5]
  BMI-evoked increase in blood pressure: significant attenuation
  BMI-evoked increase in core body temperature: significant attenuation
  BMI-evoked increase in heart rate: significant attenuation
[6]
  anxiety-like behavior (time spent in center of open field) in OVEX rats: reverses anxiogenic effects
[6]; listed as ORX 1 receptor antagonist
  anxiety-like behavior (time spent in center of open field) in OVEX rats: reverse the anxiogenic effects of OVEX
[7]; [13]
  intensity of the hot flash (tail skin temperature) after 20% CO2: reduces the intensity
  onset of the hot flash (tail skin temperature) after 20% CO2: delays the onset
[7]; sham-OVEX controls
  baseline levels of tail temp in controls: reduced baseline levels of tail temp
[8]
  crossing of blood brain barrier: crosses blood brain barrier
  duration of central activity: > 4 h

## CC/C(=C(\c1ccccc1)c1ccc(OCCN(C)C)cc1)c1ccccc1 [tamoxifen]
[6]; tamoxifen 10 mg/kg s.c., 3 days, adult female rats, FIG. 3A
  anxiety-like behavior (time spent in center of open field) compared to controls: increased anxiety-like behavior

## N#CC(Cc1ccc(O)cc1)c1ccc(O)cc1 (stereo not drawn) [DPN, diarylpropionitrile]
[9]
  anxiety behaviors in the elevated plus maze (EPM) and open field tests (OFT): decreased anxiety behaviors
  block of the anxiety induced by OVEXing a female rat: block the anxiety

## COC(=O)[C@@H]1[C@H]2C[C@H]3c4[nH]c5ccccc5c4CCN3C[C@@H]2CC[C@@H]1O [yohimbine]
[10]
  cellular responses (c-Fos induction) in ORX neurons: increase cellular activity in ORX neurons
[11]; female OVEX vs sham-OVEX rats, FIG. 5B
  tail skin temperature: rapidly increase tail skin temp in female OVEX, but not sham OVEX control rats
[11]; yohimbine challenge
  core body temp following tail skin temp increase: dramatic drop
[1]; intravenous infusions, symptomatic, but not asymptomatic, menopausal women
  provocation of hot flashes: provokes

## Cc1ccc(-n2nccn2)c(C(=O)N2CCN(c3nc4cc(Cl)ccc4o3)CC[C@H]2C)c1 [MK4305]
[2]
  mode of orexin receptor antagonism: competitive, dual ORX1 and ORX2 receptor antagonists
[3]
  safety and side effects in phase III trials: safe, have few side effects

## CCCc1c(-c2ccc(O)cc2)nn(-c2ccc(O)cc2)c1-c1ccc(O)cc1 [PPT, Tris(4-hydroxyphenyl)-4-propyl-1Hpyrazole]
[9]
  anxiety behaviors in the elevated plus maze (EPM) and open field tests (OFT): increase anxiety behaviors
  block of the anxiety induced by OVEXing a female rat: not

## Cc1nnc2n1-c1ccc(Cl)cc1C(c1ccccc1)=NC2 [alprazolam]
[4]; alprazolam 3 mg/kg i.p., FIG. 1
  lactate-induced responses versus vehicle treated groups (Fisher's LSD, p<0.05): significant differences

## C[C@]12CC[C@@H]3c4ccc(O)cc4CC[C@H]3[C@@H]1CC[C@@H]2O [E2, 17-β-estradiol]
[9]
  anxiety behaviors in the elevated plus maze (EPM) and open field tests (OFT): decreased anxiety behaviors
  block of the anxiety induced by OVEXing a female rat: block the anxiety
